# Results published in patent publication US7566550B2, “Screening method for developing drugs against pathogenic microbes having two-component system” (priority 2002, dated 2009).
# Where “and” joins values, the source holds several entries; their conditions need not be identical. Equal entries are not always repeated. Entries after “also recorded” stand apart in the source; their conditions may differ.
# How the values were obtained:
# Rv2027194 [1] = molecular target: T1, Rv2027194 (Mycobacterium tuberculosis, UniProt P9WGK1); assay: High-throughput (96-well filter retention) autophosphorylation of sensor kinase Rv2027194 with [γ32P]ATP; assay type: biochemical, M. tuberculosis; conditions: high-throughput format, concentration course 2.5 mM to 1 μM; read-out: concentration required to cause 50% inhibition (IC50) of the autophosphorylation of Rv2027194
# T1 sequence (P9WGK1 380-573 limits assumed): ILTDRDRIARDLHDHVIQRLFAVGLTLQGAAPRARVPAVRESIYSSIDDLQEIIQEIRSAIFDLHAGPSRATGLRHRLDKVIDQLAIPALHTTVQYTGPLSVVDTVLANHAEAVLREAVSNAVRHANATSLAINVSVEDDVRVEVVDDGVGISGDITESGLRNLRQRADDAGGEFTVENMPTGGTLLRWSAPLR
# Rv2027194 [2] = molecular target: T1, Rv2027194; assay: Coomassie-stained SDS-PAGE check for aggregation of sensor kinase Rv2027194; set-up: species or system M. tuberculosis; conditions: coomassie-stained SDS-PAGE of autophosphorylation reaction
# DevS201 [3] = molecular target: T2, DevS201 (Mycobacterium tuberculosis, UniProt P9WGK3); assay: High-throughput (96-well filter retention) autophosphorylation of sensor kinase DevS201 with [γ32P]ATP; assay type: biochemical, M. tuberculosis; conditions: for IC50: high-throughput format, concentration course 2.5 mM to 1 μM, read-out: concentration required to cause 50% inhibition (IC50) of the autophosphorylation of DevS201
# T2 sequence (P9WGK3 378-578 limits assumed): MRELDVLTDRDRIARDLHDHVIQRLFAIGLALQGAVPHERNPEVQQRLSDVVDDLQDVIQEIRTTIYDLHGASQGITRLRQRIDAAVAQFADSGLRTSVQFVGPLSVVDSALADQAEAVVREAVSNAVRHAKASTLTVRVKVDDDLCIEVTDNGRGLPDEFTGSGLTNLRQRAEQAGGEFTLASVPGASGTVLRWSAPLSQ
# DevS201 [4] = molecular target: T2, DevS201; assay: Coomassie-stained SDS-PAGE check for aggregation of sensor kinase DevS201; set-up: species or system M. tuberculosis; conditions: coomassie-stained SDS-PAGE of autophosphorylation reaction
# DevS201 [5] = molecular target: T2, DevS201; assay: SDS-PAGE/autoradiography assay of DevS201 autophosphorylation in presence of candidate compounds; assay type: biochemical, M. tuberculosis; conditions: 1 mM compound, 12 μM DevS201, SDS-PAGE format
# Procedure: FIG. 16. Inhibition of autophosphorylation of sensor kinase DevS201 by various candidate compounds. Autoradiogram of SDS-PAGE of autophosphorylation reaction products. Lane 1, levamisole HCl; lane 2, folic acid; lane 3, gly-gly-glycine; lane 4, EGTA; lane 5, bromo-phenol blue; lane 6, HABA; lane 7, ethidium bromide; lane 8, anti-DevS antibody (1 μl); lane 9, no compound. Briefly, all the mentioned compounds (1 mM final concentration) were added to 12 μM of DevS201 in reaction buffer without ATP and incubated at RT for 30 minutes after which the reaction was initiated by addition of [γ^32P]ATP and cold ATP. The reaction contents were then incubated at 25° C. for 60 minutes and were subsequently analyzed on gel as mentioned earlier.
# Utilizing this knowledge a few compounds were tested for their inhibitory activity on the autophosphorylation potential of DevS sensor kinase. These included levamisole, folic acid, glycyl glycyl glycine, ethidium bromide, bromo phenol blue, 2-4-hydroxyphenylazo benzoic acid (HABA), 2-mercapto benzimidazole etc. […]
# To elaborate, 12 μM of DevS201 was incubated with the aforementioned compounds in the phosphorylation reaction buffer (50 mM Tris.HCl, pH 8.0, 50 mM KCl and 25 mM MgCl2) for 30 minutes at room temperature. […] Subsequently, the reactions were terminated and analyzed on SDS-PAGE as mentioned previously.
# tubercle bacilli = conditions: replicating, static and multidrug-resistant bacilli; cited from earlier work
SMILES,IC50 (Rv2027194 [1]),aggregation of sensor kinase Rv2027194 in presence of compound (Rv2027194 [2]),IC50 (DevS201 [3]),aggregation of sensor kinase DevS201 in presence of compound (DevS201 [4]),inhibition of the autophosphorylation of DevS201 (autoradiogram) (DevS201 [5]),"inhibition at 2500 µM (DevS201 [3]; in the presence of 2.5 mM, read-out: inhibition of DevS)",activity against tubercle bacilli (tubercle bacilli)
"Sc1nc2ccccc2[nH]1 [2-MBI, 2-mercapto benzimidazole]",400 to 600 µM and 300 to 800 µM,absence of aggregate,400 to 600 µM and 300 to 800 µM,absence of aggregate,,,
"O=S1(=O)OC(c2cc(Br)c(O)c(Br)c2)(c2cc(Br)c(O)c(Br)c2)c2ccccc21 [BPB, 3′,3″,5′,5″-Tetrabromophenol tetrabromosulfonapthalene]",1500 to 1700 µM,no aggregation; also recorded: did not cause aggregation,1500 to 1700 µM,no aggregation; also recorded: did not cause aggregation,visible inhibition,,
"CC[n+]1c(-c2ccccc2)c2cc(N)ccc2c2ccc(N)cc21.[Br-] [EtBr, Phenanthridinium, 3,8-diamino-5-ethyl-6-phenyl-, bromide]",600 to 700 µM and 500 to 1000 µM,no aggregation; also recorded: did not cause aggregation,> 2500 µM,no aggregation; also recorded: did not cause aggregation,visible inhibition,35%,
O=[N+]([O-])c1cn2c(n1)OC[C@@H](OCc1ccc(OC(F)(F)F)cc1)C2 [PA-824],,,,,,,activity against both replicating and static tubercle bacilli as well as multidrug-resistant bacilli
